Reference: US5877320A, “Process for the preparation of organotin compounds useful as cytotoxic agents” (priority 1995, dated 1999)

Tests used:
[1] = system: P388 lymphocytic leukemia; conditions: in words; literature; cited from earlier work
A498 = assay: In-vitro cytotoxicity [ID50] against A498 (renal cancer); type: cell-based, human; conditions: NCI-USA protocol
Description: (§1) The in-vitro cytotoxicity determined in terms of inhibition dose [ID50 ] of compounds having the formulae 8-11 prepared by the process of the present invention against […] different human cancer cell lines namely MCF7, EVSAT (Breast Cancer), WIDR (Colon Cancer), IGROV (Ovarian Cancer), M19MEL (Melanoma), A498 (Renal Cancer) and H226 (Nonsmall cell lung Cancer) have been measured following NCI-USA protocol [M. R. Boyd, "Status of the NCI preclinical antitumour drug discovery screen. Principles & practice of oncology 3, pp. 1-12 (1989)] alongwith the latest ID50 values of inorganic cancer drugs are presented in Table 1.

MCF7 = assay: In-vitro cytotoxicity [ID50] against MCF7 (breast cancer); type: cell-based, human; conditions: NCI-USA protocol
Description: as §1

M19MEL = assay: In-vitro cytotoxicity [ID50] against M19MEL (melanoma); type: cell-based, human; conditions: NCI-USA protocol
Description: as §1

WIDR = assay: In-vitro cytotoxicity [ID50] against WIDR (colon cancer); type: cell-based, human; conditions: NCI-USA protocol
Description: as §1

EVSAT = assay: In-vitro cytotoxicity [ID50] against EVSAT (breast cancer); type: cell-based, human; conditions: NCI-USA protocol
Description: as §1

IGROV = assay: In-vitro cytotoxicity [ID50] against IGROV (ovarian cancer); type: cell-based, human; conditions: NCI-USA protocol
Description: as §1

H226 = assay: In-vitro cytotoxicity [ID50] against H226 (nonsmall cell lung cancer); type: cell-based, human; conditions: NCI-USA protocol
Description: as §1

Row | Compound | activity against P388 in mice [1] | Anti-tumour activity [ID50] (A498) [µg/mL] | Anti-tumour activity [ID50] (MCF7) [µg/mL] | Anti-tumour activity [ID50] (M19MEL) [µg/mL] | Anti-tumour activity [ID50] (WIDR) [µg/mL] | Anti-tumour activity [ID50] (EVSAT) [µg/mL] | Anti-tumour activity [ID50] (IGROV) [µg/mL] | Anti-tumour activity [ID50] (H226) [µg/mL]
1 | [Cl][Sn]([Cl])([c]1ccccc1)[CH]1CCCCC1 [cyclohexyl-(phenyl)tindichloride] | inhibition of P-388 in mice | – | – | – | – | – | – | –
2 | dibenzyl(phenanthroline)-tindichloride | inactive | – | – | – | – | – | – | –
3 | bis(thiophene) complex of dibenzyltindichloride [compound 9] | – | 0.11 | 0.068 | 0.25 | 0.55 | 0.13 | 0.05 | 0.4
4 | bipyridine complex of dibenzyltindichloride [compound 11] | – | 0.16 | 0.12 | 0.32 | 0.8 | 0.15 | 0.08 | 0.35
5 | N.N.[Cl][Pt][Cl] [cis-platin, reference compound] | – | 1.2 | 1.4 | 0.78 | 1.55 | 0.92 | 0.227 | 3.158
6 | bis(indole) complex of dibenzyltindichloride [compound 8] | – | 0.2 | 0.15 | 0.4 | 0.85 | 0.15 | 0.11 | 0.2
7 | N.N.O=C([O-])C1(C(=O)[O-])CCC1.[Pt+2] [Carboplatin, reference compound] | – | 18 | 10.5 | 5.5 | 3.5 | 4.5 | 2.4 | 25
8 | bis(imidazole) complex of dibenzyltindichloride [compound 10] | – | 1 | 0.7 | 1.5 | 3.2 | 0.4 | 3.2 | 1.3
